Reference: patent US10206900B2, “Treatments for fibrotic diseases” (MOR RESEARCH APPLICATIONS LTD., priority 2013, dated 2019)

Assays:
RPE cells = experiment: Cell size / morphology (rhodamine-phalloidin staining) upon TGF-β1; format: cell-based; conditions: 5Z-7-oxozeaenol 1 μM or SB431542 10 μM prior to TGF-β1
Experimental: FIG. 3A: RPE cells were plated on fibronectin-coated glass coverslips, serum-starved for 16 hours, pretreated with 5Z-7-oxozeaenol (1 μM) or SB431542 (10 μM), or DMSO for 1 hour, then treated with or without TGF-β1 for 2 days. Following treatment, the cells were stained with rhodamine-phalloidin (actin fibers-red) and DAPI (blue) and visualized by confocal microscopy. Scale bars: […]. FIG. 3B: Serum-starved RPE cells pretreated with 5Z-7-oxozeaenol (1 μM) or DMSO for 1 hour, and were exposed to TGF-β as in FIG. 3A. Total RNA was extracted at each time point and qPCR was performed. Transcription levels of CTGF were determined after 6 h, 16 h and 24 h. Bars represent the specific mRNA amount relative to GAPDH mRNA in the same samples. All experiments were performed in triplicates. A representative histogram from two independent experiments is shown. FIG. 3C: RPE cells were plated and treated as in FIG. 3A. Following treatment, the cells were immunostained with E-cadherin antibodies (green) and DAPI (blue). Representative photographs of two independent experiments are shown. In addition to the secretion of MMPs and increased migratory capacity, several morphological changes underlie EMT (Lamouille et al., I 2007, 178:437-451). […]

MMP-9 = MMP-9 activity by gelatin zymography in RPE cell supernatants; format: cell-based; conditions: RPE cells, SB431542 10 μM pretreatment, TGF-β1 2.5 ng/ml, 24 hours
Experimental: FIGS. 2A-2C TAK1 regulates RPE cells EMT phenotype upon TGF-β stimulation. FIG. 2A: RPE cells were serum-starved for 16 hours, pretreated with 5Z-7-oxozeaenol (1 μM) or left untreated for 1 hour. The cells were then treated with TGF-β1 (2.5 ng/ml) as described herein for 24 h and immunostained with α-SMA antibodies (red) and DAPI (blue). Representative photographs of three independent experiments. The histogram in the bottom panel represents quantification of α-SMA antibody pixel intensity. FIG. 2B: RPE cells were serum-starved for 16 hours, then treated with mitomycin C (10 ng/ml) for 3 h. Thereafter, pretreated with 5Z-7-oxozeaenol (1 μM) or Dimethyl sulfoxide (DMSO) for 1 hour. Following this process a scratch was performed in the cell monolayer and the serum free medium was supplemented with TGF-β1 (2.5 ng/ml) or left unsupplemented. Scratches were photo-documented at the indicated times (top panel) and their width was measured using Image-J software. […] Bars are Mean±SD. FIG. 2C: RPE cells were serum-starved for 16 hours then pretreated with 5Z-7-oxozeaenol (1 μM) or SB431542 (10 μM), or DMSO for 1 hour. […] Total MMP-9 activities were processed by gelatin zymography (top panel) and the band intensity values were calculated by Quantity One® 1-D analysis software. […] Data is expressed as the Mean±SD.

With `NC(=O)c1ccc(-c2nc(-c3ccc4c(c3)OCO4)c(-c3ccccn3)[nH]2)cc1` [SB431542] the “TGF-β1-induced increase in cell size (hypertrophic RPE cells)” value (RPE cells) was “abolished the increase in cell size” and the “activation of MMP-9 by TGF-β1” value (MMP-9) was “completely abolished the activation of MMP-9”.
